Reference: patent EP0973516B1, “USE OF HALO AND/OR NITRO-SUBSTITUTED FLAVONOIDS AS ANXYOLITICS” (University of Strathclyde, priority 1997, dated 1998)
Read-outs that look alike come from different tables or passages of the source.

Target: Benzodiazepine receptors (BDZ-Rs)
Assay: Inhibition of 3H-flunitrazepam (3H-FNZ) binding to washed rat cerebral cortical membranes
Method: Adult male Wistar rats weighing 250g were used for biochemical experiments.
Membrane preparations were carried out according to Medina et al. (1990). Briefly, brains were rapidly dissected out on ice and the different structures were homogenized in 10 volumes of 0.32 M sucrose and centrifuged at 900 x g for 10 min. The resulting supernatant was centrifuged at 100,000 x g for 30 min and the pellet washed twice in 25mM Tris HCl buffer pH 7.4 at 100,000 x g for 30 min,and stored at-20°C until used.
Binding affinities to BDZ-Rs were determined by the ability of the compounds to inhibit Hoffman-La Roche ^3H-flunitrazepam (^3H-FNZ) binding to extensively washed rat cerebal cortical membranes following the method as described by Levi de Stein, M. et al., Mol. Brain Res (1989),5, pp 9-15.
In brief, for each assay, triplicate samples of the membranes, containing 0.2 to 0.4 mg protein were suspended in a final volume of 1 ml of 0.25 mM Tris-HCl buffer, pH 7.3.
The incubation was carried out at 4°C for 60 min with 0.5 nM ^3H-FNZ. To study the binding saturation, a range of 0.3 to 10 nM ^3H-FNZ was used. Non-specific binding was determined in parallel incubations in the presence of 3µM FNZ, and represented 5-15% of total. The assays were terminated by filtration under vacuum through Whatman GF/A glass-fiber filters, and three washes with 3mL each of incubation medium. Filters were dried and counted after the addition of 5 mL of 2,5-diphenyloxazole/xylene as scintillation fluid.
The competition curves were analyzed using Graph-Pad Prism software.
Figures 1-5 show representative displacement curves of [^3H] flunitrazepam (0.5 nM) binding by different flavones to washed crude synaptosomal membranes from rat cerebral cortex.

[1] = Rat Cerebral Cortex membranes, 0.5 nM 3H-FNZ, means of 3-5 independent determinations, read-out: Ki^b
[2] = mean ± SEM from displacement curves of [3H] flunitrazepam binding to rat synaptosomal membranes, read-out: Ki
[3] = single representative displacement curve (Figures 1-5), [3H] flunitrazepam 0.5 nM, washed crude synaptosomal membranes from rat cerebral cortex, read-out: Ki

SMILES: O=c1cc(-c2ccccc2)oc2ccccc12 [Flavone 6, Flavone, reference compound]
- Ki [1]: 1000 nM

SMILES: O=c1cc(-c2ccccc2)oc2ccc([N+](=O)[O-])cc12 [Compound A1, 6-nitroflavone]
- Ki [1]: 275 nM
- Ki [2]: 275 ± 41.1 nM
- Ki [3]: 315 nM

SMILES: O=c1cc(-c2cccc(Br)c2)oc2ccc(Br)cc12 [Compound A4, 6,3'-dibromoflavone]
- Ki [1]: 19 nM
- Ki [2]: 18.6 ± 2.18 nM
- Ki [3]: 22.7 nM

SMILES: O=c1cc(-c2cccc(Br)c2)oc2ccc([N+](=O)[O-])cc12 [Compound A5, 6-nitro-3'-bromoflavone]
- Ki [1]: 25 nM
- Ki [2]: 25.2 ± 2.46 nM
- Ki [3]: 21.8 nM

SMILES: O=c1cc(-c2cccc(Br)c2)oc2ccccc12 [Compound A3, 3'-bromoflavone]
- Ki [1]: 413 nM
- Ki [2]: 414 ± 46 nM
- Ki [3]: 427 nM

SMILES: O=c1cc(-c2cccc(Cl)c2)oc2ccccc12 [Compound A2, 3'-chloroflavone]
- Ki [1]: 614 nM
- Ki [2]: 614 ± 32.7 nM
- Ki [3]: 665 nM
